Measured values from patent publication US12667549B2 (DOMPÉ FARMACEUTICI S.P.A., priority 2020, dated 2026).
“Also recorded” adds a separate entry of the source.

What was measured:
[1] = tested on: carrageenan-induced rat paw edema; experiment: Inflammatory pain in rats induced by carrageenan intraplantar injection (paw edema); type: in vivo, Male Wistar rats; details: oral capsules 1 h before 1% carrageenan; KL Co-xx 47.1 mg/kg, Gabapentin 20.4 mg/kg, admixture 47.1+20.4 mg/kg; FIGS. 4 and 5
Text: Rat chow and tap water were available ad libitum. […] Animal care was in compliance with Italian Legislative Decree (D.L. 116/92) and European Commission Directive (O.J. of E.C. L358/1, 18/12/86) regulations on the protection of laboratory animals. All efforts were made to minimize animal suffering and the number of animals used.
Edema was expressed as the mean increase in paw volume (ml) relative to control animals.

[2] = cited from earlier work
[3] = Plasma and brain levels of Gabapentin after oral administration as capsules; details: male, Sprague-Dawley, rat, in vivo, 2 capsules
[4] = tested on: osteoarthritis; details: prolonged administration; cited from earlier work
[5] = in vivo; cited from earlier work

In the case of `NCC1(CC(=O)O)CCCCC1` [Gabapentin], the “anti-inflammatory effect on carrageenan-evoked edema (paw volume, % inhibition)” value [1] is listed as “less effective; also recorded: little active on inflammatory pain”, the “time of utmost level in plasma” value ([2]; after oral administration) is listed as 3 to 4 h and the “binding to plasma proteins” value ([2]; in vivo) is listed as “does not attach to plasma proteins”. The hepatic metabolism ([2]; in vivo) was “neither inhibited nor metabolized by hepatic enzymes”, the excretion half-life ([2]; renal excretion) was “roughly 6 hours” and the Kp at 2 h [3] was 0.378. For the same compound, the “start of therapeutic effect in osteoarthritis (duration of administration)” value [4] was 3 months, the “side effect: ataxia” value [5] was 13% and the “side effect: dizziness” value [5] was 18%. For the same compound, the “side effect: fatigue” value [5] was 11% and the “side effect: somnolence” value [5] was 20%.
